Data from patent US20230279002A1, “Polymorphs of Crystalline Forms of 3,10-dimethoxy-5,8,13,13a-tetrahydro-6H-isoquinolino[3,2-a]isoquinolin-9-yl 3-fluorobenzenesulfonate and Salts Thereof” (CVI Pharmaceuticals Limited, priority 2020, published 2023).
“Also recorded” adds a separate entry of the source.

Tests used:
Format in all cases: physicochemical
[1] = DVS (Dynamic Vapor Sorption) moisture sorption/desorption, hygroscopicity classification; conditions: 25 °C; for Change In Mass (%) - ref, Desorption / Change In Mass (%) - ref, Sorption / Change In Mass (%) - ref, Hysteresis: Cycle 1
Experimental: DVS (Dynamic Vapor Sorption): Around 10-20 mg of samples were used to test its moisture sorption/desorption profiles at 25° C. under 0%˜95%˜0% relative humidity (RH) cycle using dm/dt: 0.01%/min equilibrium and a measurement step of 5% RH.
Hygroscopicity Classification: Typical %-moisture gain as a function of increased RH was determined by DVS. Samples went through a dynamic test isothermally at 25° C. The test was divided into 2 processes, one was absorption process, the other was desorption process. RH ranged from 0% to 95% with 5% RH for each step, and when dm/dt<=0.01%, it was assumed the water sorption/desorption equilibrium is reached.

[2] = Solubility in SGF, FaSSIF, FeSSIF, 0.1M HCl, pH 4.5 and pH 6.8 aqueous at 25° C. (HPLC); conditions: for Solubility conc.(mg/ml): solubility of salts transformed to freebase; for Final pH: solubility test
Experimental: Solubility: Excess drug substance was equilibrated with SGF (Simulated Gastric Fluid), FaSSIF (Simulated Small Intestinal Fluid under Fasted state), FeSSIF (Simulated Small Intestinal Fluid under Fed state), 0.1M HCl, pH 4.5 aqueous, and pH 6.8 aqueous at 25° C. After stirring for 20˜24 h, each sample was filtered, diluted appropriately and analyzed by HPLC. The experiment was terminated once a solubility target of 5 mg/mL was reached.

[3] = Solid stability at 40° C./0% RH (closed) and 40° C./75% RH (open), HPLC; conditions: for 0 day % remaining / 7 day % remaining / 21 day % remaining: solid
Summary of the method: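 Solid compound (5 mg) stored in the dark at 40 °C/0% RH in closed vials and at 40 °C/75% RH open. Samples analysed by HPLC at day 0, 5 and 10, or at days 0, 7 and 21, depending on the study.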

[4] = Solution stability in 0.1 N HCl, pH 4.5 buffer and pH 6.8 buffer at 25° C. and 37° C., HPLC
Experimental: Solution stability: A stock solution of compound (1.0 mg/mL) in MeOH was diluted with 0.1 N HCl, pH 4.5 buffer (acetate) and pH 6.8 buffer to reach constant ionic strength of 0.15 M and the same final concentration (50 μg/mL, 40% MeOH).
A stock solution of 1b and 3b (1.0 mg/mL) in MeOH was diluted with pH 6.8 buffer to reach constant ionic strength of 0.15M and the same final concentration (25 μg/mL, 40% […]).
The solutions were stored at 25° C. and 37° C.

[5] = TGA (Thermal Gravimetric Analysis) weight loss; conditions: room temperature to 120° C.
Experimental: TGA (Thermal Gravimetric Analysis): Samples of compounds (4˜6 mg) were weighed into the pan, and heated under nitrogen purge using a ramp rate of 20° C./min over the range of 30° C.˜350° C.

Substance: 3,10-dimethoxy-5,8,13,13a-tetrahydro-6H-isoquinolino[3,2-a]isoquinolin-9-yl 3-fluorobenzenesulfonate [Compound 1b]
- Hygroscopicity classification by DVS [1]: non-hygroscopic; also recorded: not hygroscopic
- Change In Mass (%) - ref, Desorption ([1]; Target RH 0.0 %): 0.0000%
- Change In Mass (%) - ref, Sorption ([1]; Target RH 0.0 %): 0.0000%
- Change In Mass (%) - ref, Desorption ([1]; Target RH 5.0 %): 0.0094%
- Change In Mass (%) - ref, Hysteresis ([1]; Target RH 5.0 %): 0.0031%
- Change In Mass (%) - ref, Sorption ([1]; Target RH 5.0 %): 0.0063%
- Change In Mass (%) - ref, Desorption ([1]; Target RH 10.0 %): 0.0157%
- Change In Mass (%) - ref, Hysteresis ([1]; Target RH 10.0 %): 0.0052%
- Change In Mass (%) - ref, Sorption ([1]; Target RH 10.0 %): 0.0104%
- Change In Mass (%) - ref, Desorption ([1]; Target RH 15.0 %): 0.0198%
- Change In Mass (%) - ref, Hysteresis ([1]; Target RH 15.0 %): 0.0063%
- Change In Mass (%) - ref, Sorption ([1]; Target RH 15.0 %): 0.0136%
- Change In Mass (%) - ref, Desorption ([1]; Target RH 20.0 %): 0.0251%
- Change In Mass (%) - ref, Hysteresis ([1]; Target RH 20.0 %): 0.0073%
- Change In Mass (%) - ref, Sorption ([1]; Target RH 20.0 %): 0.0178%
- Change In Mass (%) - ref, Desorption ([1]; Target RH 25.0 %): 0.0292%
- Change In Mass (%) - ref, Hysteresis ([1]; Target RH 25.0 %): 0.0084%
- Change In Mass (%) - ref, Sorption ([1]; Target RH 25.0 %): 0.0209%
- Change In Mass (%) - ref, Desorption ([1]; Target RH 30.0 %): 0.0334%
- Change In Mass (%) - ref, Hysteresis ([1]; Target RH 30.0 %): 0.0104%
- Change In Mass (%) - ref, Sorption ([1]; Target RH 30.0 %): 0.0230%
- Change In Mass (%) - ref, Desorption ([1]; Target RH 35.0 %): 0.0386%
- Change In Mass (%) - ref, Hysteresis ([1]; Target RH 35.0 %): 0.0125%
- Change In Mass (%) - ref, Sorption ([1]; Target RH 35.0 %): 0.0261%
- Change In Mass (%) - ref, Desorption ([1]; Target RH 40.0 %): 0.0449%
- Change In Mass (%) - ref, Hysteresis ([1]; Target RH 40.0 %): 0.0094%
- Change In Mass (%) - ref, Sorption ([1]; Target RH 40.0 %): 0.0355%
- Change In Mass (%) - ref, Desorption ([1]; Target RH 45.0 %): 0.0501%
- Change In Mass (%) - ref, Hysteresis ([1]; Target RH 45.0 %): 0.0104%
- Change In Mass (%) - ref, Sorption ([1]; Target RH 45.0 %): 0.0397%
- Change In Mass (%) - ref, Desorption ([1]; Target RH 50.0 %): 0.0543%
- Change In Mass (%) - ref, Hysteresis ([1]; Target RH 50.0 %): 0.0115%
- Change In Mass (%) - ref, Sorption ([1]; Target RH 50.0 %): 0.0428%
- Change In Mass (%) - ref, Desorption ([1]; Target RH 55.0 %): 0.0606%
- Change In Mass (%) - ref, Hysteresis ([1]; Target RH 55.0 %): 0.0146%
- Change In Mass (%) - ref, Sorption ([1]; Target RH 55.0 %): 0.0460%
- Change In Mass (%) - ref, Desorption ([1]; Target RH 60.0 %): 0.0658%
- Change In Mass (%) - ref, Hysteresis ([1]; Target RH 60.0 %): 0.0178%
- Change In Mass (%) - ref, Sorption ([1]; Target RH 60.0 %): 0.0480%
- Change In Mass (%) - ref, Desorption ([1]; Target RH 65.0 %): 0.0689%
- Change In Mass (%) - ref, Hysteresis ([1]; Target RH 65.0 %): 0.0178%
- Change In Mass (%) - ref, Sorption ([1]; Target RH 65.0 %): 0.0512%
- Change In Mass (%) - ref, Desorption ([1]; Target RH 70.0 %): 0.0731%
- Change In Mass (%) - ref, Hysteresis ([1]; Target RH 70.0 %): 0.0157%
- Change In Mass (%) - ref, Sorption ([1]; Target RH 70.0 %): 0.0574%
- Change In Mass (%) - ref, Desorption ([1]; Target RH 75.0 %): 0.0794%
- Change In Mass (%) - ref, Hysteresis ([1]; Target RH 75.0 %): 0.0146%
- Change In Mass (%) - ref, Sorption ([1]; Target RH 75.0 %): 0.0648%
- Change In Mass (%) - ref, Desorption ([1]; Target RH 80.0 %): 0.0857%
- Change In Mass (%) - ref, Hysteresis ([1]; Target RH 80.0 %): 0.0136%
- Change In Mass (%) - ref, Sorption ([1]; Target RH 80.0 %): 0.0721%
- Change In Mass (%) - ref, Desorption ([1]; Target RH 85.0 %): 0.0940%
- Change In Mass (%) - ref, Hysteresis ([1]; Target RH 85.0 %): 0.0136%
- Change In Mass (%) - ref, Sorption ([1]; Target RH 85.0 %): 0.0804%
- Change In Mass (%) - ref, Desorption ([1]; Target RH 90.0 %): 0.1065%
- Change In Mass (%) - ref, Hysteresis ([1]; Target RH 90.0 %): 0.0115%
- Change In Mass (%) - ref, Sorption ([1]; Target RH 90.0 %): 0.0951%
- Change In Mass (%) - ref, Desorption ([1]; Target RH 95.0 %): 0.1159%
- Change In Mass (%) - ref, Sorption ([1]; Target RH 95.0 %): 0.1159%
- moisture picked up (DVS) ([1]; at 95% RH): ~0.2%
- Solubility conc.(mg/ml) ([2]; 0.1N HCL): 0.605 mg/mL
- Solubility conc.(mg/ml) ([2]; FaSSIF): 0.007 mg/mL
- Solubility conc.(mg/ml) ([2]; FeSSIF): 0.009 mg/mL
- Solubility conc.(mg/ml) ([2]; SGF): 0.588 mg/mL
- Solubility conc.(mg/ml) ([2]; Water): 0.008 mg/mL
- Solubility conc.(mg/ml) ([2]; pH 4.5 Acetate Buffer (USP)): 0.008 mg/mL
- Solubility conc.(mg/ml) ([2]; pH 6.8 Phosphate Buffer (USP)): 0.011 mg/mL
- Final pH ([2]; 0.1N HCL): 1.68
- Final pH ([2]; FaSSIF): 6.52
- Final pH ([2]; FeSSIF): 5.14
- Final pH ([2]; SGF): 1.67
- Final pH ([2]; Water): 5.42
- Final pH ([2]; pH 4.5 Acetate Buffer (USP)): 4.59
- Final pH ([2]; pH 6.8 Phosphate Buffer (USP)): 6.91
- Solid-state stability (HPLC) ([3]; 40° C./0% RH (closed) and 40° C./75% RH (open), dark, up to 3 weeks): substantially stable
- 0 day % remaining ([3]; 40° C. (0% RH, closed)): 100.0%
- 7 day % remaining ([3]; 40° C. (0% RH, closed)): 99.3%
- 21 day % remaining ([3]; 40° C. (0% RH, closed)): 98.4%
- 0 day % remaining ([3]; 40° C./75% RH (open)): 100.0%
- 7 day % remaining ([3]; 40° C./75% RH (open)): 99.2%
- 21 day % remaining ([3]; 40° C./75% RH (open)): 102.0%
- Remaining % ([4]; 25° C., 0.1N HCL, 0 h, 50 μg/mL, 40% MeOH): 100.00%
- Remaining % ([4]; 25° C., 0.1N HCL, 3 h, 50 μg/mL, 40% MeOH): 100.53%
- Remaining % ([4]; 25° C., 0.1N HCL, 24 h, 50 μg/mL, 40% MeOH): 100.88%
- Solution stability ([4]; 25° C., 24 h, 0.1N HCl, pH 4.5 buffer): stable
- Solution stability ([4]; 25° C., 24 h, pH 6.8 buffer): clear degradations
- Remaining % ([4]; 25° C., pH 4.5, 0 h, 50 μg/mL, 40% MeOH): 100.00%
- Remaining % ([4]; 25° C., pH 4.5, 3 h, 50 μg/mL, 40% MeOH): 99.94%
- Remaining % ([4]; 25° C., pH 4.5, 24 h, 50 μg/mL, 40% MeOH): 98.79%
- Remaining % ([4]; 25° C., pH 6.8*, 0 h, final conc. 25 μg/mL with 40% DMSO): 100.00%
- Remaining % ([4]; 25° C., pH 6.8*, 3 h, final conc. 25 μg/mL with 40% DMSO): 99.18%
- Remaining % ([4]; 25° C., pH 6.8*, 24 h, final conc. 25 μg/mL with 40% DMSO): 91.23%
- Remaining % ([4]; 37° C., 0.1N HCL, 0 h, 50 μg/mL, 40% MeOH): 100.00%
- Remaining % ([4]; 37° C., 0.1N HCL, 3 h, 50 μg/mL, 40% MeOH): 101.92%
- Remaining % ([4]; 37° C., 0.1N HCL, 24 h, 50 μg/mL, 40% MeOH): 100.14%
- Solution stability ([4]; 37° C., 24 h, 0.1N HCl, pH 4.5 buffer): stable
- Solution stability ([4]; 37° C., 24 h, pH 6.8 buffer): decomposed
- Remaining % ([4]; 37° C., pH 4.5, 0 h, 50 μg/mL, 40% MeOH): 100.00%
- Remaining % ([4]; 37° C., pH 4.5, 3 h, 50 μg/mL, 40% MeOH): 99.51%
- Remaining % ([4]; 37° C., pH 4.5, 24 h, 50 μg/mL, 40% MeOH): 98.83%
- Remaining % ([4]; 37° C., pH 6.8*, 0 h, final conc. 25 μg/mL with 40% DMSO): 100.00%
- Remaining % ([4]; 37° C., pH 6.8*, 3 h, final conc. 25 μg/mL with 40% DMSO): 98.97%
- Remaining % ([4]; 37° C., pH 6.8*, 24 h, final conc. 25 μg/mL with 40% DMSO): 94.70%
- TGA weight loss (in words) [5]: almost no weight loss
